Laboratory results taken from patent US20040067507A1, “Liver inflammation predictive genes” (priority 2002, published 2004).
Like-named read-outs stand apart in the source and are kept apart here.

System: Sprague Dawley rats Crl:CD
Type: in vivo, rat
Text: In addition to the database described and utilized herein, other toxicology gene expression databases may be generated, and used to identify additional liver toxicity biomarkers, which may also be employed in the practice of the liver inflammation prediction methods of the invention. […] An example of compounds, dose levels, liver toxicity classifications and histopathology scores used in the Examples which follow are provided in Table 1. The compounds and dose levels are abbreviated in the Abbreviation Column. The Inflammation Score relates the histopathology liver inflammation, a score of “2” or higher indicates histopathology of increasing severity.
Identification of Correlating Genes: For the purpose of identifying candidate predictive genes, the database preferably includes histopathology scores for each animal which has been exposed to one or more agent(s). […] The scores are numerical scores that reflect the occurrence and severity of histopathological changes. These scores can be adjusted to have similar range to gene expression changes. […] Because the scores are numerical, they are suitable for use with a variety of statistical correlation and similarity measures.
Sprague Dawley rats Crl:CD from Charles River, Raleigh, N.C. were divided into treated rats that receive a specific concentration of the compound (see Table 1) and the control rats that only received the vehicle in which the compound is mixed (e.g., saline).
At specified timepoints (6 h, 24 h and 72 h) after administration (intraperitoneal route) of the compound, a set number of rats (usually 3 control and 3 treated) were euthanized and tissues collected. Each rat was heavily sedated with an overdose of CO2 by inhalation and a maximum amount of blood drawn. Exsanguination of the rat by this drawing of blood kills the rat. The method of collecting the tissues is very important and ensures preserving the quality of the mRNA in the tissues. The body of the rat was then opened up and prosectors rapidly removed the tissues (including liver) and immediately placed them into liquid nitrogen. […] The organs/tissues were then packaged into well-labeled plastic freezer quality bags and stored at −80 degrees until needed for isolation of the mRNA from a portion of the organ/tissue sample.
Correlation with Histopathology Scores: Histopathology scores for each animal (assigned on a compound-dose basis as indicated in Table 1) were entered with gene expression data by using the GeneSpring™ ‘Drawn Gene’ function. Correlations between inflammation histopathology scores and gene expression were conducted with the distance measures listed below: […]

[1] = 8 mg/kg i.p., 72 h, 1=no histopathology, 2 or higher=increasing severity
[2] = 30 mg/kg i.p., 72 h, 1=no histopathology, 2 or higher=increasing severity
[3] = 0.2 ml/kg i.p., 72 h, 1=no histopathology, 2 or higher=increasing severity
[4] = 0.8 ml/kg i.p., 72 h, 1=no histopathology, 2 or higher=increasing severity
[5] = Sprague Dawley Crl:CD, rat, in vivo, ip
[6] = Sprague Dawley Crl:CD, rat, in vivo
[7] = 16 mg/kg i.p., 72 h, 1=no histopathology, 2 or higher=increasing severity
[8] = 12 mg/kg i.p., 72 h, 1=no histopathology, 2 or higher=increasing severity
[9] = 25 mg/kg i.p., 72 h, 1=no histopathology, 2 or higher=increasing severity
[10] = 100 mg/kg i.p., 72 h, 1=no histopathology, 2 or higher=increasing severity
[11] = 0.1 mg/kg i.p., 72 h, 1=no histopathology, 2 or higher=increasing severity
[12] = 0.4 mg/kg i.p., 72 h, 1=no histopathology, 2 or higher=increasing severity
[13] = 38 mg/kg i.p., 72 h, 1=no histopathology, 2 or higher=increasing severity
[14] = 150 mg/kg i.p., 72 h, 1=no histopathology, 2 or higher=increasing severity
[15] = 20 mg/kg i.p., 72 h, 1=no histopathology, 2 or higher=increasing severity
[16] = 80 mg/kg i.p., 72 h, 1=no histopathology, 2 or higher=increasing severity
[17] = 15 mgkg i.p., 72 h, 1=no histopathology, 2 or higher=increasing severity
[18] = 60 mgkg i.p., 72 h, 1=no histopathology, 2 or higher=increasing severity
[19] = 1 mg/kg i.p., 72 h, 1=no histopathology, 2 or higher=increasing severity
[20] = 2 mg/kg i.p., 72 h, 1=no histopathology, 2 or higher=increasing severity
[21] = 4 mg/kg i.p., 72 h, 1=no histopathology, 2 or higher=increasing severity
[22] = 250 mg/kg i.p., 72 h, 1=no histopathology, 2 or higher=increasing severity
[23] = 1000 mg/kg i.p., 72 h, 1=no histopathology, 2 or higher=increasing severity

CN(C)CCCN1c2ccccc2Sc2ccc(Cl)cc21 [chlorpromazine]
Liver Inflammation (8 mg/kg i.p., 72 h): no | Liver Necrosis (8 mg/kg i.p., 72 h): no | Inflamm. Score [1]: 1 | Necr. Score [1]: 1 | Liver Inflammation (30 mg/kg i.p., 72 h): no | Liver Necrosis (30 mg/kg i.p., 72 h): no | Inflamm. Score [2]: 1 | Necr. Score [2]: 1

Brc1ccccc1 [bromobenzene]
Liver Inflammation (0.2 ml/kg i.p., 72 h): yes | Liver Necrosis (0.2 ml/kg i.p., 72 h): yes | Inflamm. Score [3]: 2 | Necr. Score [3]: 2 | Liver Inflammation (0.8 ml/kg i.p., 72 h): yes | Liver Necrosis (0.8 ml/kg i.p., 72 h): yes | Inflamm. Score [4]: 3 | Necr. Score [4]: 4

CCO [ethanol]
Inflamm. Score [5]: 1 | Necr. Score [5]: 1 | Liver Inflammation (rat, in vivo, ip): no | Liver Necrosis (rat, in vivo, ip): no

CN1CCN(C2=Nc3cc(Cl)ccc3Nc3ccccc32)CC1 [clozapine]
Inflamm. Score [6]: 1 | Necr. Score [6]: 1 | Liver Inflammation (rat, in vivo): no | Liver Necrosis (rat, in vivo): no

O=NN(CCCl)C(=O)NCCCl [carmustine]
Liver Inflammation (16 mg/kg i.p., 72 h): no | Liver Necrosis (16 mg/kg i.p., 72 h): no | Inflamm. Score [7]: 1 | Necr. Score [7]: 1

COc1cc2c(c3oc(=O)c4c(c13)CCC4=O)[C@@H]1C=CO[C@@H]1O2 [aflatoxin]
Inflamm. Score (rat, in vivo): 4 | Liver Inflammation (rat, in vivo): yes | Liver Necrosis (rat, in vivo): yes | Necr. Score (rat, in vivo): 8

COc1cccc2c1C(=O)c1c(O)c3c(c(O)c1C2=O)C[C@@](O)(C(=O)CO)C[C@@H]3O[C@H]1C[C@H](N)[C@H](O)[C@H](C)O1 [doxorubicin]
Liver Inflammation (12 mg/kg i.p., 72 h): no | Liver Necrosis (12 mg/kg i.p., 72 h): no | Inflamm. Score [8]: 1 | Necr. Score [8]: 1

c1ccccc1 [benzene]
Inflamm. Score [5]: 1 | Necr. Score [5]: 1 | Liver Inflammation (rat, in vivo, ip): no | Liver Necrosis (rat, in vivo, ip): no

CC(=O)Nc1ccc(O)cc1 [acetaminophen]
Inflamm. Score [6]: 1 | Liver Inflammation (rat, in vivo): no

C=C[C@H]1C[N@@]2CC[C@H]1C[C@@H]2[C@@H](O)c1ccnc2ccc(OC)cc12 [quinidine]
Liver Inflammation (25 mg/kg i.p., 72 h): no | Liver Necrosis (25 mg/kg i.p., 72 h): no | Inflamm. Score [9]: 1 | Necr. Score [9]: 1 | Liver Inflammation (100 mg/kg i.p., 72 h): no | Liver Necrosis (100 mg/kg i.p., 72 h): no | Inflamm. Score [10]: 1 | Necr. Score [10]: 1

C[C@]12CC[C@@H]3c4ccc(O)cc4CC[C@H]3[C@@H]1CC[C@@H]2O [estradiol]
Liver Inflammation (0.1 mg/kg i.p., 72 h): no | Liver Necrosis (0.1 mg/kg i.p., 72 h): no | Inflamm. Score [11]: 1 | Necr. Score [11]: 1 | Liver Inflammation (0.4 mg/kg i.p., 72 h): no | Liver Necrosis (0.4 mg/kg i.p., 72 h): no | Inflamm. Score [12]: 1 | Necr. Score [12]: 1

COc1ccc(C[C@H](N)C(=O)N[C@H]2[C@@H](O)[C@H](n3cnc4c(N(C)C)ncnc43)O[C@@H]2CO)cc1 [puromycin]
Liver Inflammation (38 mg/kg i.p., 72 h): no | Liver Necrosis (38 mg/kg i.p., 72 h): no | Inflamm. Score [13]: 1 | Necr. Score [13]: 1 | Liver Inflammation (150 mg/kg i.p., 72 h): no | Liver Necrosis (150 mg/kg i.p., 72 h): no | Inflamm. Score [14]: 1 | Necr. Score [14]: 1

CN(C)N=O [dimethylnitrosamine]
Liver Inflammation (20 mg/kg i.p., 72 h): yes | Liver Necrosis (20 mg/kg i.p., 72 h): yes | Inflamm. Score [15]: 4 | Necr. Score [15]: 9

Cn1c(=O)c2[nH]cnc2n(C)c1=O [theophylline]
Inflamm. Score [6]: 1 | Necr. Score [6]: 1 | Liver Inflammation (rat, in vivo): no | Liver Necrosis (rat, in vivo): no

CCC1(c2ccccc2)C(=O)NC(=O)NC1=O [phenobarbital]
Liver Inflammation (20 mg/kg i.p., 72 h): no | Liver Necrosis (20 mg/kg i.p., 72 h): no | Inflamm. Score [15]: 1 | Necr. Score [15]: 1 | Liver Inflammation (80 mg/kg i.p., 72 h): no | Liver Necrosis (80 mg/kg i.p., 72 h): no | Inflamm. Score [16]: 1 | Necr. Score [16]: 1

S=C=Nc1cccc2ccccc12 [1-naphthylisothiocyanate]
Liver Necrosis (15 mgkg i.p., 72 h): no | Inflamm. Score [17]: 1 | Necr. Score [17]: 1 | Liver Necrosis (60 mgkg i.p., 72 h): yes | Inflamm. Score [18]: 2 | Necr. Score [18]: 2

Cn1cnc([N+](=O)[O-])c1Sc1ncnc2nc[nH]c12 [azathioprine]
Inflamm. Score [6]: 1 | Necr. Score [6]: 1 | Liver Inflammation (rat, in vivo): no | Liver Necrosis (rat, in vivo): no

ClC(Cl)Cl [chloroform]
Inflamm. Score [5]: 1 | Necr. Score [5]: 1 | Liver Inflammation (rat, in vivo, ip): no | Liver Necrosis (rat, in vivo, ip): no

[Cl][Cd][Cl] [cadmium chloride]
Liver Inflammation (1 mg/kg i.p., 72 h): no | Liver Necrosis (1 mg/kg i.p., 72 h): no | Inflamm. Score [19]: 1 | Necr. Score [19]: 1 | Liver Inflammation (2 mg/kg i.p., 72 h): no | Liver Necrosis (2 mg/kg i.p., 72 h): no | Inflamm. Score [20]: 1 | Necr. Score [20]: 1 | Liver Inflammation (4 mg/kg i.p., 72 h): yes | Liver Necrosis (4 mg/kg i.p., 72 h): yes | Inflamm. Score [21]: 2 | Necr. Score [21]: 3

gentamicin
Liver Inflammation (38 mg/kg i.p., 72 h): no | Liver Necrosis (38 mg/kg i.p., 72 h): no | Inflamm. Score [13]: 1 | Necr. Score [13]: 1 | Liver Inflammation (150 mg/kg i.p., 72 h): no | Liver Necrosis (150 mg/kg i.p., 72 h): no | Inflamm. Score [14]: 1 | Necr. Score [14]: 1

NC(=O)NO [hydroxyurea]
Liver Inflammation (250 mg/kg i.p., 72 h): no | Liver Necrosis (250 mg/kg i.p., 72 h): no | Inflamm. Score [22]: 1 | Necr. Score [22]: 1 | Liver Inflammation (1000 mg/kg i.p., 72 h): no | Liver Necrosis (1000 mg/kg i.p., 72 h): no | Inflamm. Score [23]: 1 | Necr. Score [23]: 1
